Source: US20230382900A1, “INHIBITORS OF BTK” (Newave Pharmaceutical Inc., priority 2020, published 2023)
Like-named read-outs stand apart in the source and are kept apart here.

Tests used:
[1] = dogs, even at higher doses; cited from earlier work
[2] = rats, treatment for longer than 7 days; cited from earlier work
[3] = mice, even at higher doses; cited from earlier work
[4] = formulations containing GDC-0853; cited from earlier work
human recombinant WT BTK = human recombinant WT BTK (Homo sapiens, UniProt Q06187); assay: Caliper-based biochemical enzymatic assay (IC50) against WT BTK; conditions: WT BTK 0.5 nM, ATP 16 μM, peptide substrate 1 μM, room temperature 3 h
Protocol: The reaction was then terminated with EDTA, final concentration 20 mM and the phosphorylated reaction product was quantified on a Caliper Desktop Profiler (Caliper LabChip 3000). Percent inhibition was calculated for each compound dilution and the concentration that produced 50% inhibition was calculated.

human recombinant WT BTK, sequence (Q06187 whole entry): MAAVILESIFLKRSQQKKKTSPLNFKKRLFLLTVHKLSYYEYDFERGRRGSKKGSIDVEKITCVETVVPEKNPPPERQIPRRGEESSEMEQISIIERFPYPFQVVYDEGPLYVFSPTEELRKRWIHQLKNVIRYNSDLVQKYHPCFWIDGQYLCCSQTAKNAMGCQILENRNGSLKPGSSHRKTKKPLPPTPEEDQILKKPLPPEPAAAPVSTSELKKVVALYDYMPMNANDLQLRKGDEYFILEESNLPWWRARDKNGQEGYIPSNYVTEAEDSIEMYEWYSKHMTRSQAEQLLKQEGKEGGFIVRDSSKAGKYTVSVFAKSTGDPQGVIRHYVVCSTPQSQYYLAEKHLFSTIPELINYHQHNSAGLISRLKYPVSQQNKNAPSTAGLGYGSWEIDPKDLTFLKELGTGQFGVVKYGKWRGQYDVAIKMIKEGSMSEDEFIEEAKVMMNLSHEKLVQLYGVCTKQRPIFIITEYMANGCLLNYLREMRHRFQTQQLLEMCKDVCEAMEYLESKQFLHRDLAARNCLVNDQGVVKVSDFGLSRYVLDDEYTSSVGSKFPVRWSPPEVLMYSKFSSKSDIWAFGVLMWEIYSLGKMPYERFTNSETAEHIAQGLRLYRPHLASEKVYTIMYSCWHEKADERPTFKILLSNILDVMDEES

SMILES | pancreatic toxicity [1] | pancreatic toxicity [2] | pancreatic toxicity [3] | tolerability in Phase I clinical trials [4] | IC50 (human recombinant WT BTK) [nM]
C[C@H]1CN(C2COC2)CCN1c1ccc(Nc2cc(-c3ccnc(N4CCn5c(cc6c5CC(C)(C)C6)C4=O)c3CO)cn(C)c2=O)nc1 [GDC-0853] | does not occur | leads to pancreatic toxicity | does not occur | well-tolerated | –
C=CC(=O)Nc1cc(Nc2nc(-c3ccnc(NC(=O)c4ccc(C(C)(C)C)cc4)c3CO)cn(C)c2=O)ccc1N1CCN(C2CCOCC2)C[C@@H]1C [Example 1, 4-tert-butyl-N-[3-(hydroxymethyl)-4-[4-methyl-6-([4-[(2S)-2-methyl-4-(oxan-4-yl)piperazin-1-yl]-3-(prop-2-enamido)phenyl]amino)-5-oxopyrazin-2-yl]pyridin-2-yl]benzamide] | – | – | – | – | 0.64
